# Data reported in patent publication US6458398B1, “Cold water disinfection of foods” (Eco Pure Food Safety Systems, Inc., priority 1999, dated 2002).
# Key:
# [1] = tested on: Escherichia coli (ATCC number 25922); test: cold water washing of raw cabbage inoculated with E. coli suspension; conditions: 25 g raw cabbage, 10 minutes, 21° C., pH 7.5 (ozone only) or 8.5 (with FIT 0.6 g/L)
# [2] = tested on: bacterial spores (Bacillus subtilis v. globigii); conditions: within 1.5-2 minutes, water purged with 3% ozone by weight; cited from earlier work
# Candida tropicalis = conditions: in 0.30 minutes, ozone-demand free water; cited from earlier work
# [3] = tested on: human immunodeficiency virus ("HIV"); conditions: non-toxic concentration of 4 μg ozone per ml of serum; cited from earlier work
# Escherichia coli = conditions: in 19 minutes, raw waste water; cited from earlier work
# Poliovirus type I = conditions: cited from earlier work
# [4] = relative to chlorine; cited from earlier work
# Naegleria gruberi = conditions: in 1.1 minutes, ozone-demand free phosphate buffer solution; cited from earlier work
smiles,measurement,setting,value
O=[O+][O-] [ozone],decrease in E. coli relative to the control,[1],93%
same,log reduction of bacterial spores,[2],four
same,ozone concentration giving a 99% reduction,Candida tropicalis,0.02 mg/L
same,log reduction in the infectious titer,[3],six
same,ozone concentration giving a 99% reduction,Escherichia coli,2.2 mg/L
same,ozone concentration giving a 99% reduction,Poliovirus type I,0.2 mg/L
same,"rate of disinfection, times faster than chlorine",[4],"more than 3,000 times"
same,ozone concentration giving a 99% reduction,Naegleria gruberi,1.2 mg/L
